From PMC9321043, “Synthesis, Structure–Activity Relationships, and Parasitological Profiling of Brussonol Derivatives as New Plasmodium falciparum Inhibitors” (Pharmaceuticals, 2022)
Like-named read-outs stand apart in the source and are kept apart here.

Columns and labels:
[1] = tested on: P. falciparum (3D7 strain); experiment: In vitro antiplasmodial activity, P. falciparum blood-stage parasites, SYBR Green I; assay type: cell-based, Plasmodium falciparum
Description: The P. falciparum strains were cultivated in human blood cells (hRBC) O^+, while P. knowlesi was cultivated in rhesus red blood cells (rRBC) as described. P. falciparum complete RPMI (consisting of RPMI-1640, supplemented with 0.2% NaHCO3, 25 mM HEPES (pH 7.4), 11 mM D-glucose, 10 mg/L hypoxanthine, 25 mg/L gentamicin, and 0.5% (m/v) AlbuMAX II). The parasitemias of these cultures were maintained below 10% with 2.5% hematocrit. P. knowlesi complete RPMI (consisting of RPMI-1640 supplemented with 25 mM HEPES, […] hypoxanthine, 0.26% NaHCO3, 10 mg/L gentamicin, and 1% Albumax II). This culture was maintained with RBCs up to 5% hematocrit. The culture medium was changed daily, and all cultures were maintained under a 90% N2/5% CO2/5% O2 gas mixture at 37 °C. All compounds were purchased from Sigma-Aldrich (Cotia, Brazil).
The antiplasmodial activity of brussonol and derivatives was evaluated against P. falciparum blood parasites 3D7(chloroquine-sensitive). The parasites were synchronized through sterile 5% (m/v) D-sorbitol treatment over 10 min at 37 °C for the enrichment of ring stages. Centrifugation 600× g over 5 min was used to pellet the cultures. The parasitemia was determined by microscope analysis of thin blood smears stained with Giemsa 10% (v/v) after fixation with methanol. The initial parasitemia was calculated for 1000 red blood cells (RBCs), and cultures were diluted to 0.5% parasitemia and 2% hematocrit by the addition of the appropriate volumes of blood and medium. A total of 180 µL aliquots of parasites were distributed into 96-well plates followed by the addition of 20 µL of previously prepared aliquots of ten-fold concentrated compounds, the range of concentrations tested was 10–1.53 µM. Negative and positive control wells, which correspond to non-parasitized erythrocytes and parasite cultures in the absence of compounds, were set in parallel. The DMSO concentration was maintained below 0.05% (v/v) for all compounds except for brussonol, which was 0.5%. The plates were incubated for 72 h at 37 °C in a humidified incubator with a gas mixture of 90% N2, 5% O2, and 5% CO2. Each test was performed in duplicates, and the results were compared with the control cultures. Once completed incubation, the culture medium was removed, and the cells were resuspended in 100 µL PBS (116 mM NaCl, 10 mM NaH2PO4, 3 mM KH2PO4) and lysed with 100 µL lysis buffer (20 mM Tris base, 5 mM EDTA, 0.0008% (v/v) Triton X-100, 0.008% (m/v) saponin, pH 8.0) containing 0.002% (v/v) SYBR Green I. Plates were incubated for 30 min at room temperature, and a SpectraMAX Gemini EM plate reader (Molecular Devices Corp., Sunnyvale, CA) was used to determine the fluorescence corresponding to parasitic density (excitation at 485 nm, emission at 535 nm). The half-maximal inhibitory concentration (IC50^Pf) was determined by non-linear regression analysis of the resulting concentration–response curve using the software GraphPad Prism version 8.0.1 for Windows, GraphPad Software, San Diego, California USA, www.graphpad.com, accessed on 3 March 2022”.

P. falciparum Dd2 strain = experiment: Resistance assessment, Dd2 strain; assay type: cell-based; conditions: Plasmodium falciparum
[2] = tested on: P. falciparum 3D7^r_MMV848 strain; experiment: Resistance assessment, 3D7r-MMV848 strain; assay type: cell-based; conditions: Plasmodium falciparum
P. falciparum 3D7 strain = experiment: Chemical rescue assay with isopentenyl pyrophosphate (IPP); assay type: cell-based, Plasmodium falciparum; conditions: for IC50: Plasmodium falciparum, 3D7 strain, 72 h
Description: To evaluate whether brussonol interfered with the biosynthesis of […] in malaria parasites, we conducted a chemical rescue assay. The assay identifies compounds that interfere with the metabolism of isoprenoids by “rescuing” their growth inhibition through the supplementation of isopentenyl pyrophosphate (IPP), a key precursor of isoprenoid biosynthesis. […] Thus, the chemical rescue assay compares the IC50 values of the tested compound in the presence and absence of IPP. We used fosmidomycin (FOS) as a positive control for growth inhibition rescuing upon supplementation of IPP (Figure 7b). In this assay, compounds that interfere in the metabolism of isoprenoids show a significant increment in the IC50 value in the presence of IPP (Figure 7b).
The chemical rescue assay was carried out as described by Yeh and DeRisi (2011). This assay consists in verifying the IC50 value of the tested compounds with and without the isopentenyl pyrophosphate (IPP), purchased from Isoprenoids, LC (Florida, USA). Briefly, 3D7 strain ring stages were cultured in 96-well plates, with 0.5% parasitemia and 2% hematocrit. Non-parasitized erythrocytes and parasitized erythrocytes without drugs were used as growth controls, and fosmidomycin (FOS) was used as a positive control for chemical rescue. Serial dilutions of brussonol and FOS were prepared in duplicates. In the same 96-well plate, brussonol and FOS had their antiplasmodial activity evaluated with and without supplementation of 200 µM IPP. Plates were incubated for 72 h and analyzed by the SYBR Green I assay.

CC(C)c1cc2c(c(O)c1O)C[C@@]13CCCC(C)(C)[C@@H]1C[C@@H]2O3 [Compound 1, brussonol]
IC50 ([1]; 3D7 strain, 72 h, SYBR Green I, read-out: IC50^Pf): 16 ± 2 µM | IC50 ([1]; Plasmodium falciparum, 3D7, 3D7 strain, Table 2 strain panel, read-out: IC50): 13 ± 2 µM | IC50 ([1]; Plasmodium falciparum, 3D7, 72 h, 3D7 strain, 72 h, SYBR Green I, read-out: IC50^Pf): ~20 µM | IC50 (P. falciparum Dd2 strain): 7 ± 2 µM | IC50 [2]: 12 ± 3 µM | reversal of growth inhibition by IPP supplementation (P. falciparum 3D7 strain; 200 µM IPP): did not reverse the growth inhibition | IC50 (P. falciparum 3D7 strain; with 200 µM IPP, read-out: IC50 in the presence of IPP): 13.9 ± 0.2 µM | IC50 (P. falciparum 3D7 strain; without IPP, read-out: IC50 in the absence of IPP): 18 ± 1 µM
